Test results as given in EP3290412A1, “HIV-1 NUCLEOCAPSID INHIBITORS” (Università degli Studi di Siena, priority 2016, dated 2018).

Experiments:
[1] = target: T1, full length (1-55) HIV-1 NCp7 (Human immunodeficiency virus type 1 group M subtype B, UniProt P12493); experiment: Electromobility Shift Assay (EMSA), competition for ssDNA binding; conditions: NCp7 300 nM, M13mp18 ssDNA; positive = >25% inhibition at 100µM
T1 construct: recombinant full length (1-55) HIV-1 NCp7 proteins; made in house
In short: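 Recombinant NL4-3 NCp7 (300 nM in the pre-mix) was combined with compound in 20 mM Tris-HCl pH 7.4, 2 mM MgCl2, 100 mM NaCl, 1 mM DTT, then M13mp18 ssDNA was added for 25 min at 37 °C. Complexes were run on 1% agarose/0.5x TBE and stained with SybrGold. IC50 is the concentration at which bound ssDNA migrated 50% of the bound–unbound distance (triplicate).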

[2] = test system: HIV-1 reference strain NL4-3; experiment: BiCycle assay (MT-2 then TZM-bl cells); type: cell-based; conditions: Human immunodeficiency virus 1, NL43, TZM-bl, read-out: BiCycle IC50 nM
In short: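 MT-2 cells were infected with NL4-3 in the presence of five-fold compound dilutions. After 72 h, the supernatant was passed to TZM-bl cells. Two days later, luciferase luminescence was read and IC50 calculated, giving a readout that spans the whole replication cycle.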

HeLa cells = experiment: HeLa Proliferation assay (CellTiter Glo); type: cell-based; conditions: 72 hours
In short: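 HeLa cells in phenol red-free DMEM + 10% FBS plated at 2000 cells/well, recovered 4 h, then exposed to compounds for 72 h at 37 °C, 5% CO2. Viability read by CellTiter Glo luminescence.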

[3] = test system: Peripheral blood mononuclear cells (PBMC); type: cell-based; conditions: human, 7 days
In short: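 Healthy-donor PBMC stimulated 2 days with 5 µg/mL PHA, then seeded at 1x10^5 cells/well in medium with 20 IU/mL IL-2 and exposed to compound for 7 days. Viability measured by MTS (4 h, OD 490 nm). TD50 interpolated from dose versus percent mortality relative to untreated cells.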

Row | SMILES | EMSA screening results [1] | IC50 [2] [nM] | Proliferation assay HELA TD50 (HeLa cells) [µM] | Proliferation assay PBMC TD50 [3] [µM]
1 | C[C@@H](NC(=O)c1nc(-c2cc(N3CCN(C)CC3)ccn2)nc(O)c1O)C1CCCCC1 [Compound 76, (R)-N-(1-cyclohexylethyl)-5,6-dihydroxy-2-(4-(4-methylpiperazin-1-yl)pyridin-2-yl)pyrimidine-4-carboxamide] | Positive (A compound showing >25% inhibition when tested at 100µM concentration is considered as "positive") | 565 | 3.6831 | 2.5
2 | C[C@@H](NC(=O)c1nc(-c2ccc3ccccc3n2)nc(O)c1O)C1CCCCC1 [Compound 22, (R)-N-(1-cyclohexylethyl)-5,6-dihydroxy-2-(quinolin-2-yl)pyrimidine-4-carboxamide] | Positive (A compound showing >25% inhibition when tested at 100µM concentration is considered as "positive") | 450 | 2.8446 | 8.05
3 | O=C(NCC1CC1)c1nc(-c2ccccn2)nc(O)c1O [Compound 3, N-(cyclopropylmethyl)-5,6-dihydroxy-2-(pyridin-2-yl)pyrimidine-4-carboxamide] | Negative | 1410 | >50 | 6
4 | Cc1cccnc1-c1nc(O)c(O)c(C(=O)NCC2CCCCC2)n1 [Compound 11, N-(cyclohexylmethyl)-5,6-dihydroxy-2-(3-methylpyridin-2-yl)pyrimidine-4-carboxamide] | Negative | 716 | 8.2839 | 8.7
5 | CC(C)(CNC(=O)c1nc(-c2ccccn2)nc(O)c1O)C1CCCC1 [Compound 63, N-(2-cyclopentyl-2-methylpropyl)-5,6-dihydroxy-2-(pyridin-2-yl)pyrimidine-4-carboxamide] | Positive (A compound showing >25% inhibition when tested at 100µM concentration is considered as "positive") | 125 | 0.3986 | 2.1
6 | CN1CCCC(CNC(=O)c2nc(-c3ccccn3)nc(O)c2O)C1 (stereo not shown) [Compound 7, 5,6-dihydroxy-N-((1-methylpiperidin-3 - yl)methyl)-2-(pyridin-2-yl)pyrimidine-4-carboxamide] | Positive (A compound showing >25% inhibition when tested at 100µM concentration is considered as "positive") | > 50000 | >50 | >50
7 | C[C@@H](NC(=O)c1nc(-c2ccc(NC(=O)OC(C)(C)C)cn2)nc(O)c1O)C1CCCCC1 [Compound 61, tert-butyl (R)-(6-(4-((1-cyclohexylethyl)carbamoyl)-5,6-dihydroxypyrimidin-2-yl)pyridin-3-yl)carbamate] | Positive (A compound showing >25% inhibition when tested at 100µM concentration is considered as "positive") | 210 | 2.0358 | 2.4
